Experiments:
[1] = molecular target: Poly [ADP-ribose] polymerase 1 (Homo sapiens, UniProt P09874); experiment: Inhibition of GST-tagged PARP1(unknown origin) in presence of activated DNA incubated for 60 mins by microplate reader analysis
[2] = molecular target: Cyclin-dependent kinase 6 (Homo sapiens, UniProt Q00534); experiment: Inhibition of full length N-terminal human recombinant CDK6 expressed in baculovirus sf9 cells in presence of ATP by ADP-glo kinase assay
MDA-MB-231 = experiment: Antiproliferative activity against human MDA-MB-231 cells assessed as cell viability incubated for 48 hrs by MTT assay; assay type: functional, cell-based; conditions: MDA-MB-231, 48 h
MDA-MB-468 = experiment: Antiproliferative activity against human MDA-MB-468 cells assessed as cell viability incubated for 48 hrs by MTT assay; assay type: functional, cell-based; conditions: MDA-MB-468, 48 h
HCC1937 = experiment: Antiproliferative activity against human HCC1937 cells harboring BRCA1 mutant assessed as cell viability incubated for 48 hrs by MTT assay; assay type: functional, cell-based; conditions: HCC1937, 48 h
HCT-116 = experiment: Antiproliferative activity against human HCT-116 cells harboring BRCA2 mutant assessed as cell viability incubated for 48 hrs by MTT assay; assay type: functional, cell-based; conditions: HCT-116, 48 h
[3] = Cytotoxicity against human MCF-10A cells assessed as cell viability incubated for 48 hrs by MTT assay; assay type: toxicity, cell-based
[4] = Selectivity index, ratio of IC50 for antiproliferative activity against human HCC1937 cells harboring BRCA1 mutant assessed as cell viability to IC50 for antiproliferative activity against human MDA-MB-231 cells assessed as cell viability; assay type: functional

Cyclin-dependent kinase 6, sequence (Q00534 whole entry): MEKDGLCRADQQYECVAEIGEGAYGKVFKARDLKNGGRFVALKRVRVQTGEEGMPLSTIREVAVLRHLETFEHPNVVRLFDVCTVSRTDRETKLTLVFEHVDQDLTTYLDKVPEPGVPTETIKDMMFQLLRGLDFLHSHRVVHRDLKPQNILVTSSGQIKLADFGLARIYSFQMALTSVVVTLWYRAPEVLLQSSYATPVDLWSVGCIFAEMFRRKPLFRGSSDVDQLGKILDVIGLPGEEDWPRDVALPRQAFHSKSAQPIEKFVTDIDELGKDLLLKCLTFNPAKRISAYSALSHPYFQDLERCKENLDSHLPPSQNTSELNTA
Poly [ADP-ribose] polymerase 1, sequence (P09874 whole entry): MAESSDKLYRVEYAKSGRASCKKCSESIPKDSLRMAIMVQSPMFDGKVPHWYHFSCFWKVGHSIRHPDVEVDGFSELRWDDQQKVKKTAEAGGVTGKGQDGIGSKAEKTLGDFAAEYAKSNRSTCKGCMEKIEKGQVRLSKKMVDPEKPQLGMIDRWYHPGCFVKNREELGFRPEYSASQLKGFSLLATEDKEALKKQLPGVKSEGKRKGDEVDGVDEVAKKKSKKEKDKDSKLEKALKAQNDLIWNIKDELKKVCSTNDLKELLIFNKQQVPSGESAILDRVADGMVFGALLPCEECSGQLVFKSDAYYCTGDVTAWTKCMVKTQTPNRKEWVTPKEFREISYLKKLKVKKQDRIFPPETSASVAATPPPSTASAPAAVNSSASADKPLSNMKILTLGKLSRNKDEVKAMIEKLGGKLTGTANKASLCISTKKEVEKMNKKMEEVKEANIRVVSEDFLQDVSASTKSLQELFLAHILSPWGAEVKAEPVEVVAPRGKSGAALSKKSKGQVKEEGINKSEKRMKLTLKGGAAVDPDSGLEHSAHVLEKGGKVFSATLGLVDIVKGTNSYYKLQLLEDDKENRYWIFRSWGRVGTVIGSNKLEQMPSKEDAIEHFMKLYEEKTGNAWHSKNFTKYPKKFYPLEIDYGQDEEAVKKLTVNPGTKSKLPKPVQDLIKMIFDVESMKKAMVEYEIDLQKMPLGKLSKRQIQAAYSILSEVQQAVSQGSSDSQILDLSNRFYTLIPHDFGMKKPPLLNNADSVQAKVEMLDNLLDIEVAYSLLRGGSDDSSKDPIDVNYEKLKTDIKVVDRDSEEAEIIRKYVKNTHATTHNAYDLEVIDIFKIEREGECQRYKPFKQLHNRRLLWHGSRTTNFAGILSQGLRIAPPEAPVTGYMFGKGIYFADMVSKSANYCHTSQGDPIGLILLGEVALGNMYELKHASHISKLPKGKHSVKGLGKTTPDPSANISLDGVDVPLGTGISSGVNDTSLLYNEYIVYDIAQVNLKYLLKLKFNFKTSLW

IC50 [1]: 113 nM
IC50 [2]: 45.6 nM
IC50 (MDA-MB-231): 1590 nM
IC50 (MDA-MB-468): 4390 nM
IC50 (HCC1937): 8720 nM
IC50 (HCT-116): 2020 nM
SMILES: CN(C)C(=O)c1cc2cnc(Nc3ccc(C(=O)N4CCC(c5nc6c(C(N)=O)cccc6[nH]5)C4)cc3Cl)nc2n1C1CCCC1 (stereo not drawn)
IC50 at 48 h [3]: 930 nM
Ratio IC50 [4]: 5.48
